Laboratory results taken from ChEMBL document CHEMBL6071165, “Design, synthesis and biological evaluation of plant-derived miliusol derivatives achieve TNBC profound regression in vivo” (Eur J Med Chem, 2024).

What was measured:
BT-549 [1] = assay: Antiproliferative activity against human BT-549 cells assessed as inhibition of cell proliferation incubated for 24 hrs by MTT assay; assay type: functional, cell-based; conditions: BT-549, 24 h
MDA-MB-231 [2] = assay: Antiproliferative activity against human MDA-MB-231 cells assessed as inhibition of cell proliferation incubated for 48 hrs by MTT assay; assay type: functional, cell-based; conditions: MDA-MB-231, 48 h
MDA-MB-231 [3] = assay: Antiproliferative activity against human MDA-MB-231 cells assessed as inhibition of cell proliferation incubated for 24 hrs by MTT assay; assay type: functional, cell-based; conditions: MDA-MB-231, 24 h
BT-549 [4] = assay: Antiproliferative activity against human BT-549 cells assessed as inhibition of cell proliferation incubated for 48 hrs by MTT assay; assay type: functional, cell-based; conditions: BT-549, 48 h
[5] = Potency index, ratio of miliusol IC50 to test compound IC50 for antiproliferative activity against human MDA-MB-231 cells assessed as inhibition of cell proliferation incubated for 48 hrs by MTT assay; assay type: functional
BT-549 [6] = assay: Potency index, ratio of miliusol IC50 to test compound IC50 for antiproliferative activity against human BT-549 cells assessed as inhibition of cell proliferation incubated for 48 hrs by MTT assay; assay type: functional
[7] = Antiproliferative activity against human MCF-10A cells assessed as inhibition of cell proliferation incubated for 24 hrs by MTT assay; assay type: toxicity, cell-based
[8] = (§1) Selectivity ratio of IC50 for antiproliferative activity against human MCF-10A cells assessed as inhibition of cell proliferation incubated for 24 hrs by MTT assay to IC50 for antiproliferative activity against human MDA-MB-231 cells assessed as inhibition of cell proliferation incubated for 24 hrs by MTT assay; assay type: cell-based; conditions: MCF-10A cells versus MDA-MB-231 cells, read-out: Ratio IC50
[9] = as §1, with “48” for “24”; assay type: cell-based; conditions: MCF-10A cells versus MDA-MB-231 cells, read-out: Ratio IC50
[10] = as §1, with “BT-549” for “MDA-MB-231”; assay type: toxicity, cell-based; conditions: MCF-10A cells versus BT-549 cells, read-out: Ratio IC50
[11] = Antiproliferative activity against human MCF-10A cells assessed as inhibition of cell proliferation incubated for 48 hrs by MTT assay; assay type: toxicity, cell-based
[12] = as §1, with “48” for “24”, “BT-549” for “MDA-MB-231”; assay type: toxicity, cell-based; conditions: MCF-10A cells versus BT-549 cells, read-out: Ratio IC50

Row | SMILES | IC50 (BT-549 [1]) [µM] | IC50 (MDA-MB-231 [2]) [µM] | IC50 (MDA-MB-231 [3]) [µM] | IC50 (BT-549 [4]) [µM] | Ratio IC50 [5] | Ratio IC50 (BT-549 [6]) | IC50 at 24 h [7] [µM] | selectivity ratio at 24 h [8] | selectivity ratio at 48 h [9] | selectivity ratio at 24 h [10] | IC50 at 48 h [11] [µM] | selectivity ratio at 48 h [12]
1 | COC(=O)C[C@@]12C[C@@H](C=CC1=O)O[C@@H]2/C=C(\C)CCC=C(C)C | 5.33 | 1.91 | 9.54 | 0.98 |  |  |  |  |  |  |  | 
2 | CCC/C=C/C(=O)O[C@@H]1C=CC(=O)[C@@]2(CC(=O)O[C@@H]2/C=C(\C)CCC=C(C)C)C1 | 19.2 | 12.4 | 43.6 | 11 |  |  |  |  |  |  |  | 
3 | CC(=O)Nc1ccc(CC(=O)O[C@@H]2C=CC(=O)[C@@]3(CC(=O)O[C@@H]3/C=C(\C)CCC=C(C)C)C2)cc1 | 7.01 | 2.16 | 4.73 | 4.19 |  |  |  |  |  |  |  | 
4 | CC(C)=CCC/C(C)=C/[C@H]1OC(=O)C[C@]12C[C@H](OC(=O)Cc1ccc(NC(=O)c3ccccc3)cc1)C=CC2=O | 0.39 | 0.73 | 2.22 | 0.37 |  |  |  |  |  |  |  | 
5 | CC(C)=CCC/C(C)=C/[C@H]1OC(=O)C[C@]12C[C@H](OC(=O)CNC(=O)OC(C)(C)C)C=CC2=O | 2.11 | 3.2 | 1.66 | 1.14 | 1.5 | 2.7 |  |  |  |  |  | 
6 | CC(C)=CCC/C(C)=C/[C@H]1OC(=O)C[C@]12C[C@H](OC(=O)Cc1ccc(NC(=O)C3CC3)cc1)C=CC2=O | 2.3 | 0.56 | 1.09 | 0.23 |  |  |  |  |  |  |  | 
7 | CC(C)=CCC/C(C)=C/[C@H]1OC(=O)C[C@]12C[C@H](OC(=O)c1csc(Br)n1)C=CC2=O | 5.03 | 2.06 | 3.43 | 0.62 |  | 5 |  |  |  |  |  | 
8 | CC(C)=CCC/C(C)=C/[C@H]1OC(=O)C[C@]12C[C@H](OC(=O)Cn1nnc3ccccc31)C=CC2=O | 8.31 | 2.41 | 6.35 | 3.9 |  |  |  |  |  |  |  | 
9 | CC(C)=CCC/C(C)=C/[C@H]1OC(=O)C[C@]12C[C@H](OC(=O)Cc1ccc3c(c1)OCO3)C=CC2=O | 6.81 | 2.77 | 2.23 | 3.38 |  |  |  |  |  |  |  | 
10 | CC(C)=CCC/C(C)=C/[C@H]1OC(=O)C[C@]12C[C@H](OC(=O)Cc1cccs1)C=CC2=O | 10.1 | 4.14 | 4.82 | 2.46 |  |  |  |  |  |  |  | 
11 | COc1cccc(OC)c1C(=O)Nc1ccc(CC(=O)O[C@@H]2C=CC(=O)[C@@]3(CC(=O)O[C@@H]3/C=C(\C)CCC=C(C)C)C2)cc1 | 2.09 | 0.78 | 1.3 | 1.45 |  |  |  |  |  |  |  | 
12 | CC(C)=CCC/C(C)=C/[C@H]1OC(=O)C[C@]12C[C@H](OC(=O)/C=C/C=C/c1ccc3c(c1)OCO3)C=CC2=O | 19.4 | 1.66 | 8.85 | 2.87 |  |  |  |  |  |  |  | 
13 | CC(C)=CCC/C(C)=C/[C@H]1OC(=O)C[C@]12C[C@H](OC(=O)Cc1ccc(NC(=O)OC(C)(C)C)cc1)C=CC2=O | 2.03 | 1.03 | 0.46 | 1.32 |  |  |  |  |  |  |  | 
14 | CC(C)=CCC/C(C)=C/[C@H]1OC(=O)C[C@]12C[C@H](OC(=O)Cc1ccc(NC(=O)C(C)(C)C)cc1)C=CC2=O | 1.75 | 0.57 | 1.36 | 0.8 |  |  |  |  |  |  |  | 
15 | C=CC(=O)Nc1ccc(CC(=O)O[C@@H]2C=CC(=O)[C@@]3(CC(=O)O[C@@H]3/C=C(\C)CCC=C(C)C)C2)cc1 | 8.71 | 1.62 | 4.54 | 3.11 |  |  |  |  |  |  |  | 
16 | CC(C)=CCC/C(C)=C/[C@H]1OC(=O)C[C@]12C[C@H](OC(=O)Cc1ccc(NC(=O)c3ccccc3Cl)cc1)C=CC2=O | 2.48 | 0.58 | 0.96 | 0.84 |  |  |  |  |  |  |  | 
17 | CC(=O)O[C@H]1C(=O)[C@@]2(C)[C@H]([C@H](OC(=O)c3ccccc3)[C@]3(O)C[C@H](OC(=O)[C@H](O)[C@@H](NC(=O)c4ccccc4)c4ccccc4)C(C)=C1C3(C)C)[C@]1(OC(C)=O)CO[C@@H]1C[C@@H]2O [PACLITAXEL] | 0.28 | 0.45 | 1.72 | 0.05 |  |  | 0.33 | 0.19 | 0.2 | 1.18 | 0.09 | 1.8
18 | CC(C)=CCC/C(C)=C/[C@H]1OC(=O)C[C@]12C[C@H](OC(=O)Cc1ccc(Cl)cc1Cl)C=CC2=O | 15.6 | 35.4 | 19 | 8.23 |  |  |  |  |  |  |  | 
19 | CC(C)=CCC/C(C)=C/[C@H]1OC(=O)C[C@]12C[C@H](OC(=O)Cc1ccc(F)cc1Cl)C=CC2=O | 4.93 | 5.07 | 3.07 | 2.14 |  |  |  |  |  |  |  | 
20 | CC(C)=CCC/C(C)=C/[C@H]1OC(=O)C[C@]12C[C@H](OC(=O)Cc1ccc(NC(=O)c3cccs3)cc1)C=CC2=O | 2.24 | 0.46 | 1.63 | 0.64 |  |  |  |  |  |  |  | 
21 | COc1ccccc1C(=O)Nc1ccc(CC(=O)O[C@@H]2C=CC(=O)[C@@]3(CC(=O)O[C@@H]3/C=C(\C)CCC=C(C)C)C2)cc1 | 1.56 | 0.54 | 1.29 | 0.67 |  |  |  |  |  |  |  | 
22 | CC(C)=CCC/C(C)=C/[C@H]1OC(=O)C[C@]12C[C@H](OC(=O)c1cc3ccccc3n1C)C=CC2=O | 10.4 | 1.34 | 2.51 | 1.22 |  |  |  |  |  |  |  | 
23 | CC(C)=CCC/C(C)=C/[C@H]1OC(=O)C[C@]12C[C@H](OC(=O)Cn1cnc3c(=O)n(C)c(=O)n(C)c31)C=CC2=O | 5.38 | 4.42 | 2.84 | 3.47 |  |  |  |  |  |  |  | 
24 | CC(C)=CCC/C(C)=C/[C@H]1OC(=O)C[C@]12C[C@H](O)C=CC2=O | 4.85 | 4.68 | 4.19 | 3.04 |  |  |  |  |  |  |  | 
25 | COC(=O)C[C@@]1([C@H](O)/C=C(\C)CCC=C(C)C)C[C@H](O)C=CC1=O [(+)-MILIUSANE XVIII] | 4.21 | 4.23 | 8.14 | 2.26 |  |  |  |  |  |  |  | 
26 | CC(C)=CCC/C(C)=C/[C@H]1OC(=O)C[C@]12C[C@H](OC(=O)CCC(=O)NCC1CC3C=CC1C3)C=CC2=O (stereo not given in full) | 3.31 | 1.34 | 3.33 | 1.55 |  |  |  |  |  |  |  | 
27 | CC(C)=CCC/C(C)=C/[C@H]1OC(=O)C[C@]12C[C@H](OC(=O)Cc1ccc(NC(=O)/C=C/c3ccccc3)cc1)C=CC2=O | 0.99 | 0.44 | 0.85 | 0.22 |  |  |  |  |  |  |  | 
28 | CC(C)=CCC/C(C)=C/[C@H]1OC(=O)C[C@]12C[C@H](OC(=O)Cc1ccc(F)cc1)C=CC2=O | 3.03 | 7.48 | 5 | 2.22 |  |  |  |  |  |  |  | 
29 | CC(C)=CCC/C(C)=C/[C@H]1OC(=O)C[C@]12C[C@H](OC(=O)Cc1ccc(NC(=O)[C@H](Cl)c3ccccc3)cc1)C=CC2=O | 1.04 | 0.42 | 0.63 | 0.58 |  |  |  |  |  |  |  | 
